Results taken from article PMC9232636, “Insights into the mechanism of action of the arbitrium communication system in SPbeta phages” (Nature Communications, 2022).
Entries after “also recorded” stand apart in the source; their conditions may differ.

Tests used:
[1] = target: T1, AimR^Kat-N273A (Bacillus subtilis, UniProt A0A8I3AZZ2, N274A); assay: ITC, AimP binding to AimR^Kat-N273A; design: species or system Katmira phage; conditions: 25 °C, 25 mM Tris-HCl pH 8, 250 mM NaCl
Description: ITC assays were carried out in a Nano ITC Low Volume (TA instruments). In the assays, proteins (AimR^Kat or AimR^Kat-N273A) and peptides concentration were 10 and 50 μM, respectively, and both were diluted in buffer 25 mM Tris-HCl pH 8, 250 mM NaCl. The experiments were performed at 25 °C. The data obtained was integrated, corrected and analysed using the NanoAnalyze software (TA Instruments) with a single-site or two-site binding models.

[2] = target: T2, AimR^Kat (Bacillus subtilis (Katmira prophage), UniProt A0A8I3AZZ2); type: binding, Katmira phage; conditions: for Tm: Supplementary Fig. 5a, peptides at 0.5mM; for effect on Tm / stabilisation (in words): ThermoFluor
T2 sequence (A0A8I3AZZ2 2-387): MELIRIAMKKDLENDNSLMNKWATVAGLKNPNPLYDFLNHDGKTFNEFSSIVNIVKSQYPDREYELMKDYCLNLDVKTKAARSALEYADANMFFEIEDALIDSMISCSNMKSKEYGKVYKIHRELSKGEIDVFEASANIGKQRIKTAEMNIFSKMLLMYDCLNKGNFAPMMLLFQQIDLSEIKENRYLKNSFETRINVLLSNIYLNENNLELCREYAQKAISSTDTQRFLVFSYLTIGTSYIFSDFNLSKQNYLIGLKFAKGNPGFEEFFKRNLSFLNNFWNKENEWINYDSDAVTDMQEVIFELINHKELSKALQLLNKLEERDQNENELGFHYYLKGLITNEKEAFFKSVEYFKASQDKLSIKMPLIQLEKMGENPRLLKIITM
Description: The thermal shift assay was conducted in a 7500 Fast Real time PCR System (Applied Biosystems) as previously described. Briefly, samples of 20 μl buffer (20 mM Tris pH 8 and 250 mM NaCl) containing 5× Sypro Orange (Sigma-Aldrich) and 20 μM of protein were loaded in 96-well PCR plates. […] Samples were heated from 25 to 85 °C in steps of one degree. Fluorescent intensity was plotted versus temperature and integrated with GraphPad Prism software using a Boltzmann model to calculate melting temperatures.

[3] = system: AimR^Kat-DNA interaction; assay: EMSA, peptide-induced release of AimR^Kat from its DNA operator; type: biochemical, Katmira phage; conditions: protein preincubated with 0.5 μM peptide 10 min, repeated three times
Description: (§1) AimR binding to its operator and the inhibition induced by the arbitrium peptide was analysed by native polyacrylamide and agarose gel electrophoresis. Double strand DNA primer probes were purchased from Macrogen. DNA (10 ng µl^−1) and AimR (from 0.5 μM) protein was mixed in EMSA buffer (50 mM tris pH8, 250 mM NaCl). The samples were incubated for 10 min at room temperature. For peptide inhibition assay, protein was preincubated with 0.5 μM peptide for 10 min before DNA addition. Electrophoresis was then performed in 8% polyacrylamide gels in Tris-Borate-EDTA (TBE) buffer for about 150 min at 100 V at 4 °C.

[4] = system: AimR^Kat-N273A-DNA interaction; assay: EMSA, peptide-induced release of AimR^Kat-N273A from its target DNA; type: biochemical, Katmira phage; conditions: protein preincubated with 0.5 μM peptide 10 min, repeated three times
Description: as §1

[5] = target: T1, AimR^Kat-N273A; assay: Thermal shift assay of AimR^Kat-N273A with peptides; type: binding, Katmira phage; conditions: ThermoFluor
Description: The thermal shift assay was conducted in a 7500 Fast Real time PCR System (Applied Biosystems) as previously described. Briefly, samples of 20 μl buffer (20 mM Tris pH 8 and 250 mM NaCl) containing 5× Sypro Orange (Sigma-Aldrich) and 20 μM of protein were loaded in 96-well PCR plates. To calculate the Tm in the presence of the peptide, 0.5 μM of GMPRGA or GIVRGA peptide was added to the mixture. Samples were heated from 25 to 85 °C in steps of one degree. Fluorescent intensity was plotted versus temperature and integrated with GraphPad Prism software using a Boltzmann model to calculate melting temperatures.

[6] = system: SPβ ΔaimR prophage complemented with AimR^SPβ; assay: Prophage induction and phage titering, SPβ ΔaimR complemented with AimR^SPβ; type: cell-based, phage SPβ in B. subtilis; conditions: for phage titer: JP 20223, 5 μM peptide, MC induced
Description: For induction, an overnight culture was diluted 1/100 in LB media supplemented with 0.1 mM MnCl2 and 5 mM MgCl2 and then grown at 37 °C with 210 rpm shaking until reaching absorbance 0.2 at 600 nm. This step was repeated twice to ensure the cells were in exponential growth. After the second growth, Mitomycin C (MC) at 0.5 μg ml^−1 was added to the culture. Where experiments were performed to test the effect of peptide on phage titre, 5 μM of the relevant peptide was added before starting the second growth to ensure the bacteria cells were able to incorporate the peptide. The induced cultures were incubated at 30 °C with 80 rpm shaking for 4 h and then left overnight at room temperature. Following lysis, samples were filtered using 0.2 μm filters and lysates were stored at 4 °C until use.
The number of phage particles contained in the phage lysate of interest was quantified by a titering assay. An overnight culture of the relevant recipient strain (normally B. subtilis ∆6 or with the corresponding plasmid) was diluted 1/100 in LB supplemented with 0.1 mM MnCl2 and 5 mM MgCl2 and then grown at 37 °C with 210 rpm shaking until reaching absorbance 0.2 at 600 nm. When required 1 mM IPTG was added. Then, 100 μl of recipient bacteria was infected with 100 μl of serial dilutions of phage lysate in phage buffer (PhB; 1 mM NaCl, 0.05 M Tris pH 7.8, 0.1 mM MnCl2, 5 mM MgCl2) at room temperature for 10 min and 3 ml of phage top agar (LB media supplemented with 0.1 mM MnCl2 and 5 mM MgCl2 and 0.7 % agar) at 55 °C was added to the culture-phage mix and immediately poured over phage base agar plates (LB media supplemented with 0.1 mM MnCl2 and 5 mM MgCl2 and 1.5% agar). Plaques were counted after overnight growth at 37 °C temperature and photographed.

[7] = system: AimR^SPβ; conditions: previously reported; cited from earlier work

Substance: SAIRGA [AimP^Phi, the phi3T AimP peptide]
- binding by ITC (in words) [1]: unable to bind
- Tm [2]: 43 ºC
- effect on Tm / stabilisation (in words) [2]: did not have any effect
- release of AimR^Kat from DNA [3]: insensitive
- release of AimR^Kat from DNA ([3]; listed as SAIRGA): neither GMPRGA (AimP^SPβ) nor SAIRGA (the phi3T AimP peptide, AimP^Phi) (Fig. 1b) affected AimR^Kat in its ability to recognise its cognate DNA box
- release of AimR^Kat-N273A from DNA [4]: insensitive

Substance: GMPRGA [AimP^SPβ, the SPβ AimP peptide]
- Tm [2]: 43 ºC
- effect on Tm / stabilisation (in words) [2]: did not have any effect
- stabilisation / binding capacity (in words) [5]: stabilises AimR^Kat-N273A
- release of AimR^Kat from DNA [3]: only AimP^Kat for the wt form
- release of AimR^Kat from DNA ([3]; listed as GMPRGA): neither GMPRGA (AimP^SPβ) nor SAIRGA (the phi3T AimP peptide, AimP^Phi) (Fig. 1b) affected AimR^Kat in its ability to recognise its cognate DNA box
- release of AimR^Kat-N273A from DNA [4]: induce DNA releases for the N273A mutant form of AimR^Kat; also recorded: able to induce the release of AimR^Kat-N273A from its target DNA
- phage titer ([6]; repeat 1): 7.90E+08 pfu/ml
- phage titer ([6]; repeat 2): 9.60E+07 pfu/ml
- phage titer ([6]; repeat 3): 2.12E+09 pfu/ml
- phage titer ([6]; repeat 4): 6.30E+07 pfu/ml
- phage titer ([6]; repeat 5): 8.90E+07 pfu/ml
- phage titer ([6]; repeat 6): 2.90E+08 pfu/ml
- phage titer ([6]; repeat 7): 7.80E+07 pfu/ml
- reduction of phage titre ([6]; MC 0.5 μg/ml, 5 μM peptide, compared with no peptide): 10 times
- increase of Tm [7]: 10 °C
